Assay results reported in a melting point compilation (Tetko et al.; mined from patent text by program, amines drawn as free bases though some values may be those of a salt).

melting point [°C] | SMILES
120 to 121 | CC(C)(CCl)C(=O)N(O)c1ccccc1
172 | Cn1ccnc1Sc1cccc(-c2nc(=O)c3ccccc3s2)n1
198 to 200 | Cc1ccc(-c2ncc3c(n2)CCCCC3)nc1-c1ccncc1
136 | CN(C)n1c(Br)nn(C(=O)Oc2ccccc2)c1=O
215 to 216 | CC12CCC(=O)C=C1N(C(C)(C)C)CC1C2CCC2(CC(=O)O)C(C(=O)O)CCC12 (stereo not given)
161 to 163 | Nc1cc(-c2nnc(CCc3cccc(C(F)(F)F)c3)o2)ccn1
145 to 147 | CCNc1nc(Nc2ccccc2)ncc1C(=O)OCC
205 to 208 | CCCCc1nc(NC(C)=O)[nH]c(=O)c1Cc1ccc(-c2ccccc2-c2nnn[nH]2)cc1
32 to 35 | CN(C(=O)c1cccc(F)c1[Si](C)(C)C)C(C)(C)C
197 to 198 | Cc1ccc(C(=O)NC(NC(=S)Nc2ccccc2F)C(F)(F)F)cc1 (stereo not given)
212 to 214 | CCS(=O)(=O)C(F)(F)C(Cn1cncn1)(OP(=O)(O)O)c1ccc(F)cc1F (single isomer, unassigned; (+))
158 to 160 | FC(F)(F)Oc1ccc2nc(C(F)(F)F)[nH]c2c1
116 to 118 | CN(CCO)Cc1cc(NC(=N)c2cccs2)ccc1C1CCCC1
168 to 169 | O=[N+]([O-])c1ccc(Cl)c(N=Cc2ccccc2O)c1
139 to 141 | CCCCCn1cc2cc(CCCC)oc2nc1=O
188 to 189 | CC(=O)c1cc(C(F)(F)F)nn1-c1ccc(NC(=O)c2ccccc2F)cc1
181 to 183 | COC(=O)c1cc2cc(OC)c(OC)cc2cc1C(=O)O
191 | CCOC(=O)c1c(N[C@H]2CC[C@@H](c3ccccc3)CC2)ccnc1C
295 to 298 | COc1ccc(-c2cc3ncccc3c(O)n2)cc1
132 to 133 | O=C(NCCSc1ccncc1)c1ccccc1CO
161 to 163 | CCCCCCNc1ccc([N+](=O)[O-])cc1C(=O)O
59 to 62 | CSc1c(C#N)cnn1-c1ccc(C(F)(F)F)cc1Cl
142 | CCSc1cc(N)c([N+](=O)[O-])cc1N

melting point [°C] | SMILES
134 | CNC(=S)NS(=O)(=O)c1cc(CCNC(=O)c2cc(Cl)ccc2OC)ccc1OCCOC
30 to 35 | O=C1N(CCCCCl)CCN1C1CCCCC1
> 200 | N#Cc1cc(-c2ccc(Cl)c(Cl)c2)[nH]c1Cl
65.4 to 66.8 | COC(=O)c1ccc(OCCON=C(C)c2ccc(C(C)(C)C)cc2)cc1O
161 to 164 | CN(CCP(O)O)c1cc(Oc2ccc(C(F)(F)F)cc2Cl)ccc1[N+](=O)[O-]
168 to 170 | CCCCc1nc(C(C)O)c(C(=O)O)n1Cc1ccc(-c2ccccc2C(=O)O)cc1 (stereo not given)
179 to 180 | Cc1ccc(N)cc1Nc1cc(-c2cncnc2)ccn1
119 to 121 | CCc1nc2c(cnn2CC)c(NC2CCOCC2)c1CNC(=O)c1cc(C)cc(C(=O)NCc2cccc(-c3cccc(CC4CCN(C)CC4)c3)c2)c1
134 to 135 | CC(C)C1N2C=CC=CC2=CC1(C=C(Br)Br)c1ccc(F)cc1 (stereo not given)
267 to 270 | CCCOc1ncc(NS(=O)(=O)CC(=O)O)cc1-c1nc2c(CCC)nn(C)c2c(=O)[nH]1
160 to 162 | CC(=O)NC[C@H]1CN(c2ccc(N3CCC(n4cc(CO)nn4)CC3)c(F)c2)C(=O)O1
182 to 183 | Cn1c(-c2ccc(OC3CCN(C4CCC4)CC3)cc2)nc2cccnc2c1=O
168 to 171 | N#Cc1cnn(-c2nc(Cl)c(C(F)(F)F)cc2Cl)c1N
179 to 181 | Cc1c(C#N)oc2c(c1=O)COc1ccccc1-2
> 200 | O=C(NCc1ccc(Cl)cc1)c1cnc2cc(-n3cccc3)ccc2c1O
117 to 118 | CCCOc1nsc(N=CN(C)C)c1C#N
69 | COC(=O)Cc1cccc(NC(=O)NCC(=O)N2[C@@H](c3ccccc3)SC[C@H]2C(=O)OC(C)(C)C)c1
155 to 157 | N=C(CSc1nc2cc(Cl)ccc2s1)NO
292 to 293 | O=[N+]([O-])c1[nH]c(-c2c(Cl)cc(C(F)(F)F)cc2Cl)nc1Br
97 to 98 | Cc1ccc(N=CN(C)SN(C2CCCCC2)C2CCCCC2)c(C)c1
48 to 49 | CCOC(=O)C=CC(C)=CC=O
148 to 151 | CCOC(=O)C1CCNC(=O)C1=O (stereo not given)
174 to 176 | CC1C(N(C)C)CCN2c3ccccc3Cc3ccccc3C12 (stereo not given)

melting point [°C] | SMILES
143 to 145 | COc1nc(C(F)(F)C(F)(F)F)cc(=O)n1-c1cc(O)c(Cl)cc1F
> 250 | CC(=O)NCC1CN(c2ccc3c(c2)OCC2CN(C(=O)c4cc5ccccc5[nH]4)CCN32)C(=O)O1 (stereo not given)
104 | CC(C)c1ccc2c(c1)[C@H]1Cc3ccccc3[C@H]1N2 (relative stereo)
167 to 168 | Cc1ccc(S(=O)(=O)Nc2ccc([N+](=O)[O-])cc2Cl)cc1
189 to 191 | O=C(O)COc1ccc2cc(CNC(=O)c3cnn(-c4ccc(Cl)cc4)c3C(F)(F)F)ccc2c1
172 to 175 | Cc1cnc(NC(=O)C(Cc2ccc(F)cc2)c2ccc(S(C)(=O)=O)cc2)cn1 (stereo not given)
214 to 215 | CC1(C)CC(NC(=O)Nc2ccccc2)c2cc(C#N)ccc2O1 (stereo not given)
180 to 182 | FC(F)(F)c1ccc(Nc2nc3ccccc3o2)cc1
201 to 202 | C=C(Br)Cc1c(O)ccc2c(C)cc(=O)oc12
196 | CN(C(=O)Nc1ccc2ccccc2c1)c1cccc(-c2ccc(CC3SC(=O)NC3=O)cc2)c1 (stereo not given)
187 to 188 | CC(=O)NOCc1nc2c(N)nc3c(c2n1CC(C)C)CCCC3
102 to 104 | COc1cc(Oc2cccc(C(F)(F)F)c2)nc(C(=O)NC(OC)C(F)(F)F)c1 (stereo not given)
110 to 112 | CCOC(=O)c1c(-c2cccc([N+](=O)[O-])c2)cc(-c2ccccc2)nc1C
115 to 117 | CCCCc1nn(-c2cc(NC(=S)CCC)ccc2Cl)c(=O)n1Cc1ccc(-c2ccccc2S(=O)(=O)NC(=O)OC(C)(C)C)cc1F
165 to 166 | CN1CCC(c2ccc(F)cc2)(C(C)(C)O)CC1
146 to 148 | COc1ccc(S(=O)(=O)C(C)(CCCCN2C(=O)c3ccccc3C2=O)C(=O)NO)cc1 (stereo not given)
137 to 139 | C#Cc1cnc(OCCC)c(-c2nc3c(CC)nn(CCN4CCOCC4)c3c(=O)[nH]2)c1
> 268 | Oc1ccc(Nc2ncc3ncc(-c4cccc(O)c4)cc3n2)cc1
120 | CC1Nc2ccc(NC(=O)c3ccc(C(=NN)C(=O)OCc4ccccc4)cc3)cc2CN(CCc2ccccc2)C1=O (stereo not given)
121 | Cn1cncc1C(O)(c1ccc(F)cc1)c1ccc2c(c1)C(c1cccc(Cl)c1)Nc1nnnn1-2 (stereo not given)
201 to 203 | N#Cc1ccc(CNc2cc(C(N)=O)c([N+](=O)[O-])cc2[N+](=O)[O-])cc1

SMILES | melting point [°C]
CC(=O)CS(=O)(=O)C(c1ccc(Cl)cc1)c1ccc(Cl)cc1 | 114 to 115
CCC(C)(C)N=NC(C)(C#N)CCC(=O)O (stereo not given) | 60 to 62
COc1cc(N2[C@H](C)C[C@](C)(O)[C@@H]2C)ccc1C#N | 121 to 123
